In US20120010177A1, “MicroRNA Modulators and Method for Identifying And Using The Same” (The Wistar Institute / North Carolina State University, priority 2008, published 2012):
Read-outs that look alike come from different tables or passages of the source.

System: miR-21
Assay: High throughput primary miR-21 FLuc reporter assay (concentration-response)
Format: cell-based, human
Conditions: HeLa Luc-miR-21 reporter, 48-hour incubation; for AC50: read-out: AC50
Experimental: Primary miR-21 Assay. The primary miR-21 FLuc reporter assay is carried out with HeLa cells expressing the Luc-miR-21 reporter using a 48-hour incubation time. Active compounds that increase the luciferase response are identified based upon inhibition of miR-21.
SAR. The concentration-response data for the entire high throughput screen is plotted and modeled by a four parameter logistic fit and SAR analysis is performed according to conventional approaches (Iglese, et al. (2006) Proc. Natl. Acad. Sci. USA […]:11473-8). In brief, Class 1.1 and 1.2 are full curves containing upper and lower asymptotes with efficacy ≧80% and <80%, respectively. Class 2.1 and 2.2 are incomplete curves having only one asymptote with efficacy ≧80% and <80%, respectively. Class 3 curves show activity at only the highest concentration or are poorly fit. […] For SAR analysis, compounds associated with Class 1 and 2.1 curves are clustered using LEADSCOPE® fingerprints. […] Compounds sharing a common scaffold form a series. Candidate series and singletons are chosen for follow up studies. For each lead or series, an appropriate library design method (e.g., point substitution library or matrix library) is selected. Typically, precursors are synthesized and a library of 15-25 compounds is produced for analysis in the above-described assays.

Structure (SMILES) | AC50 (Homo sapiens, HeLa, 48 h) [µM] | other results
CCC(=O)Nc1ccc(NC(=O)C23CC4CC(CC(C4)C2)C3)cn1 [Compound 98] | 16.5 | –
CCCC(=O)Nc1ccc(NC(=O)C23CC4CC(CC(C4)C2)C3)cn1 [Compound 99] | 18.5 | –
COCC(=O)Nc1c(C(=O)Nc2ccc3c(c2)OCCO3)oc2ccccc12 [Compound 100] | 0.66 | –
COc1ccc(NC(=O)c2ncn(-c3ccccc3)n2)cc1Cl [Compound 101] | 9.27 | –
COc1ccc(NC(=O)c2nnn(CC(=O)Nc3cccc(C)c3C)c2N)c(OC)c1 [Compound 102] | 13.1 | –
COc1ccc(NC(=O)c2sc3nc[nH]c(=O)c3c2C)cc1Cl [Compound 103] | 16.5 | –
COc1ccc(NC(=O)c2ccccc2NC(=O)c2ccccc2C(=O)O)c(OC)c1 [Compound 104] | 18.5 | –
NC(=O)c1ccccc1NC(=O)c1ccc(-c2ccc(Br)cc2)o1 [Compound 105] | 1.17 | –
O=C(Nc1nnc(S(=O)(=O)N2CCCC2)s1)c1ccc(F)cc1 [Compound 106] | 3.69 | –
O=C(Nc1ccccc1OC(=O)c1ccc(Cl)cc1)c1ccc(Cl)cc1 [Compound 107] | 11.7 | –
Cn1nnc2cc(C(=O)Nc3ccccc3F)ccc21 [Compound 108] | 14.7 | –
O=C(Nc1ccc2nn(-c3ccccc3)nc2c1)c1ccc(-c2cccc(Cl)c2)o1 [Compound 109] | 18.5 | –
Cc1ccc(-c2cc(C(=O)NCCc3ccccc3)c3c(-c4ccc(C)cc4)[nH]nc3c2)cc1 [Compound 110] | 9.26 | –
Cc1ccc(NC(=O)Cc2noc3ccccc23)nc1 [Compound 111] | 16.5 | –
O=C(Nc1ccc2nc3n(c(=O)c2c1)CCCCC3)c1ccccc1Cl [Compound 112] | 6.56 | –
Nc1cc(N)nc(SCC(=O)Nc2ccc(Br)cc2Cl)n1 [Compound 113] | 11.7 | –
Cc1cccc(NC(=O)C2Cc3ccccc3O/C2=N/O)c1 (stereo not shown) [Compound 114] | 10.4 | –
COc1ccc(C(Nc2ccccn2)c2c(NC(=O)c3ccco3)sc(C)c2C)cc1OC (stereo not shown) [Compound 115] | 16.5 | –
CN1CCN(NC(=O)Nc2ccc(Br)cc2Cl)CC1 [Compound 116] | 13.1 | –
COc1ccc(C(=O)NCCC2=CCCCC2)cc1OC1CCN(C(C)C)CC1 [Compound 117] | 16.5 | –
COC(=O)/C(=C/c1cccc([N+](=O)[O-])c1)NC(=O)c1ccc(OC)cc1 [Compound 119] | 10.4 | –

Structure (SMILES) | AC50 (Homo sapiens, HeLa, 48 h) [µM] | other results
CCCC(=O)N(CCN1CCOCC1)c1nc2cc(C)c(C)cc2s1 [Compound 120] | 7.36 | –
N#CC1Cc2cc3c(cc2N=C1SCC(=O)N1CCOCC1)OCO3 (stereo not shown) [Compound 121] | 0.66 | –
O=C(CSc1nnc(-c2ccc(Cl)cc2)o1)Nc1ccc(F)cc1 [Compound 122] | 1.04 | –
O=C(CSc1nnc(-c2ccc(O)cc2)o1)Nc1ccccc1Br [Compound 123] | 1.31 | –
O=C(CSc1nnc(-c2ccccn2)o1)Nc1cccc(Cl)c1 [Compound 124] | 1.85 | –
COc1ccc(NC(=O)CSc2nc(SC)ns2)c(OC)c1 [Compound 125] | 2.07 | –
CC(C)(C)c1ccc(-c2nc(NC(=O)CSc3ccc4ccccc4n3)ns2)cc1 [Compound 126] | 2.33 | –
Cc1c(-c2nnc(SCC(=O)Nc3ccccc3F)o2)nnn1-c1ccc(F)cc1 [Compound 127] | 2.93 | –
Cc1cc(C)c(C#N)c(SCC(=O)Nc2ccc3c(c2)OCO3)n1 [Compound 128] | 3.29 | –
Cc1cc(C(F)(F)F)c(C#N)c(SCC(=O)Nc2nc3cc(Br)ccc3s2)n1 [Compound 129] | 3.69 | –
C#Cc1cccc(NC(=O)CSc2nnc(-c3ccc(C(F)(F)F)cn3)o2)c1 [Compound 130] | 4.14 | –
CSc1nsc(SCC(=O)Nc2ccc(F)cc2F)n1 [Compound 131] | 4.14 | –
O=C(CSc1nnc(-c2ccc(C(F)(F)F)cn2)o1)Nc1cccc(Cl)c1 [Compound 132] | 4.14 | –
Cc1cc(NC(=O)CSc2nc3ccsc3c(=O)n2NC(=O)c2ccccc2)no1 [Compound 133] | 5.21 | –
Cc1cccc(-c2nnc(SCC(=O)Nc3ccc(C)c(C)c3)o2)c1 [Compound 134] | 5.85 | –
CC(C)c1ccc2nc(SCC(=O)NCC3CCCO3)c(C#N)cc2c1 (stereo not shown) [Compound 135, CC(C)C1═C/C═C2/N═C(SCC(═O)NCC3CCCO3)\C(═C/C\2═C\1)C#N] | – | Efficacy: −60.74; Curve Class (four parameter logistic fit): −2.2; AC50: 5.85 µM
N#CC1=C(SCC(=O)Nc2ccccc2)NC(=O)CC1c1ccc(O)cc1 (stereo not shown) [Compound 136] | 6.56 | –
COc1ccc(NC(=O)CSc2nnc(-c3cccs3)o2)cc1 [Compound 137] | 6.56 | –
CC(C)(C)c1ccc(NC(=O)CSc2nnc(-c3[nH]nc4ccccc34)o2)cc1 [Compound 138] | 6.56 | –
COc1cccc(NC(=O)CSc2nnc(-c3cccs3)o2)c1 [Compound 139] | 6.56 | –
